This experiment concerns the target PDE5 (Homo sapiens, UniProt O76074). As to the kind of experiment: cGMP PDE activity. The experiment is classed as biochemical.

As for `CSc1ccc(/C=C2/C(C)=C(CC(=O)O)c3cc(F)ccc32)cc1` [SS, sulindac sulfide], the IC50 was roughly 100 µM.

Values taken from paper PMC3151326 (2011).
